# US10710978B2, “STK4 inhibitors for treatment of hematologic malignancies” (Dana-Farber Cancer Institute, Inc., priority 2015, dated 2020)
# Like-named read-outs stand apart in the source and are kept apart here.
# Legend:
# Experiment in all cases: KiNativ assay
# Format in all cases: binding
# PEK = PEK (Homo sapiens (Human), UniProt Q9NZJ5); settings: H929 live cell
# Protocol: (§1) Biochemical IC50s of the compounds of the present disclosure against various kinases were measured in a KiNativ assay. Compounds were screened in duplicate at 10 μM in H929 live cell. IC50 was measured via Mass spectroscopy (MS).
# MSK2 domain1 = MSK2 domain1 (Homo sapiens (Human), UniProt O75676); settings: H929 live cell
# Protocol: as §1
# FRAP = FRAP (Homo sapiens (Human), UniProt P42345); settings: H929 live cell
# Protocol: as §1
# MARK4 = MARK4 (Homo sapiens (Human), UniProt Q96L34); settings: H929 live cell, read-out: inhibition (10 μM)
# Protocol: as §1
# CK1g2 = CK1g2 (Homo sapiens (Human), UniProt P78368); settings: H929 live cell
# Protocol: as §1
# MAP2K7 = MAP2K7 (Homo sapiens (Human), UniProt O14733); settings: H929 live cell
# Protocol: as §1
# STLK3 = STLK3 (Homo sapiens (Human), UniProt Q9UEW8); settings: H929 live cell
# Protocol: as §1
# eEF2K = eEF2K (Homo sapiens (Human), UniProt O00418); settings: H929 live cell
# Protocol: as §1
# SRPK1 = SRPK1 (Homo sapiens (Human), UniProt Q96SB4); settings: H929 live cell
# Chain of SRPK1 (Q96SB4 whole entry): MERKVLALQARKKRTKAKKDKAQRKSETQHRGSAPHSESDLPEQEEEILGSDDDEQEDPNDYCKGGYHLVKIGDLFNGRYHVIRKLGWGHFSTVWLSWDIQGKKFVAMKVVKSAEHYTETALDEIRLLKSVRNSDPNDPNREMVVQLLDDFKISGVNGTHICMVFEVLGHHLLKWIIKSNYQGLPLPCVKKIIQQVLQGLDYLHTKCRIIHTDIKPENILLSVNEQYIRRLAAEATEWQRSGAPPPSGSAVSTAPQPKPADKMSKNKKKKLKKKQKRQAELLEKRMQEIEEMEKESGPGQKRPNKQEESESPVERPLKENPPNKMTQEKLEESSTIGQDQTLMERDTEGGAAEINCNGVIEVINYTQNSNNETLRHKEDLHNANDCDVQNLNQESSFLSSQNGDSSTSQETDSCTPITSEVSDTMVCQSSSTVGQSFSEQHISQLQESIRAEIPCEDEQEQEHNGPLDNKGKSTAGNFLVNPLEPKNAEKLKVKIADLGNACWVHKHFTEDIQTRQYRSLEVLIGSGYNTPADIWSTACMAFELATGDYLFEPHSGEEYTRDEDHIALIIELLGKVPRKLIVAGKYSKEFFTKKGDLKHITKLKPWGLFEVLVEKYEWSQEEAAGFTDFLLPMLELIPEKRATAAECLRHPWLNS
# Protocol: as §1
# MST2 = MST2 (Homo sapiens (Human), UniProt Q13188); settings: H929 live cell
# Chain of MST2 (Q13188 whole entry): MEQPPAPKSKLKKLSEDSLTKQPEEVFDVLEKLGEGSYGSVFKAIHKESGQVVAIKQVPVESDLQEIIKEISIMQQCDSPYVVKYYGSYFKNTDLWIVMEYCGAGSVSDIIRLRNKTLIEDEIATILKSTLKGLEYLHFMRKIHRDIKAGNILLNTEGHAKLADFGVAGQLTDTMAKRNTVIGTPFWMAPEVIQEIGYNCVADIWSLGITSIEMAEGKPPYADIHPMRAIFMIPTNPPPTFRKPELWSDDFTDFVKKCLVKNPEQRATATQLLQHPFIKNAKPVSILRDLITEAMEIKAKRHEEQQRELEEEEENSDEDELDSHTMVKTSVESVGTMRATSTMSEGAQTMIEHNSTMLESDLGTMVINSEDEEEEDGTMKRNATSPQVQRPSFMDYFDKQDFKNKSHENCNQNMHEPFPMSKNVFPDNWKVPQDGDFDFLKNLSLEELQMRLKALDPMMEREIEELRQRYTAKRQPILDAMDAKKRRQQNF
# Protocol: as §1
# MST4, YSK1 = settings: H929 live cell
# Protocol: as §1
# RSK1 domain2 = RSK1 domain2 (Homo sapiens (Human), UniProt Q15418); settings: H929 live cell
# Chain of RSK1 domain2 (Q15418 whole entry, the tested form may be a part): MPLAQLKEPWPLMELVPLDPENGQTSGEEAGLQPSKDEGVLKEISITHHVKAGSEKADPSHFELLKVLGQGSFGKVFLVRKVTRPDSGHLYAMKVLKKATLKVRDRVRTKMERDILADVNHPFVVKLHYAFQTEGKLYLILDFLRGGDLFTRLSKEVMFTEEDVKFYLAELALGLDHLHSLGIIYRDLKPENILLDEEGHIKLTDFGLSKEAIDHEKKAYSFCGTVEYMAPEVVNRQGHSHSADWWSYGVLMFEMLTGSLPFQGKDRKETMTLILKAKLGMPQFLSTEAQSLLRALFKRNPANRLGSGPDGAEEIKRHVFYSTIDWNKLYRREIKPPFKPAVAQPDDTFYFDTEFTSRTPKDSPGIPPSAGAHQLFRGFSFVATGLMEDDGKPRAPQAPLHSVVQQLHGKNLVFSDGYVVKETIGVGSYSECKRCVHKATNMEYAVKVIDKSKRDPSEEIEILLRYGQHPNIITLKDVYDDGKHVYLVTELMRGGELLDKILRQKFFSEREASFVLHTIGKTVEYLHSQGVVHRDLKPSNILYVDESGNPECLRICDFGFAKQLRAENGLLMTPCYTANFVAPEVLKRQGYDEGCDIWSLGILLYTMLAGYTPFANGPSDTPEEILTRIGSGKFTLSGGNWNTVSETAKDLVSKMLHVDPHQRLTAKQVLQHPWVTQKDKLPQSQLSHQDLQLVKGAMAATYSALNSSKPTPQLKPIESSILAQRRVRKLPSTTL
# Protocol: as §1
# MST1, MST2 = settings: H929 live cell
# Protocol: as §1
# PFTAIRE1 = PFTAIRE1 (Homo sapiens (Human), UniProt O94921); settings: H929 live cell
# Protocol: as §1
# MAP2K1 = MAP2K1 (Homo sapiens (Human), UniProt Q02750); settings: H929 live cell
# Protocol: as §1
# GSK3B = GSK3B (Homo sapiens (Human), UniProt P49841); settings: H929 live cell
# Chain of GSK3B (P49841 whole entry): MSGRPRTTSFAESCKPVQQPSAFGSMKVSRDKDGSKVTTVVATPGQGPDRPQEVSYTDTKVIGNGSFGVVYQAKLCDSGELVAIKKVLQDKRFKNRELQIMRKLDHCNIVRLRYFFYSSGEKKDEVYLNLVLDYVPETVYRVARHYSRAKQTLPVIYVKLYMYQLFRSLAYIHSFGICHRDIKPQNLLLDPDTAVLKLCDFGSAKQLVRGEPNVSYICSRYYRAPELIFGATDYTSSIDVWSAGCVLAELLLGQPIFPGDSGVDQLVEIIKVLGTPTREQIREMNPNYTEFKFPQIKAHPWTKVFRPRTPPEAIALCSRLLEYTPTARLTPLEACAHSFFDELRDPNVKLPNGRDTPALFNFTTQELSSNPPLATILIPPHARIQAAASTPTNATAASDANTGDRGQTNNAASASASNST
# Protocol: as §1
# AKT1 = AKT1 (Homo sapiens (Human), UniProt P31749); settings: H929 live cell
# Chain of AKT1 (P31749 whole entry): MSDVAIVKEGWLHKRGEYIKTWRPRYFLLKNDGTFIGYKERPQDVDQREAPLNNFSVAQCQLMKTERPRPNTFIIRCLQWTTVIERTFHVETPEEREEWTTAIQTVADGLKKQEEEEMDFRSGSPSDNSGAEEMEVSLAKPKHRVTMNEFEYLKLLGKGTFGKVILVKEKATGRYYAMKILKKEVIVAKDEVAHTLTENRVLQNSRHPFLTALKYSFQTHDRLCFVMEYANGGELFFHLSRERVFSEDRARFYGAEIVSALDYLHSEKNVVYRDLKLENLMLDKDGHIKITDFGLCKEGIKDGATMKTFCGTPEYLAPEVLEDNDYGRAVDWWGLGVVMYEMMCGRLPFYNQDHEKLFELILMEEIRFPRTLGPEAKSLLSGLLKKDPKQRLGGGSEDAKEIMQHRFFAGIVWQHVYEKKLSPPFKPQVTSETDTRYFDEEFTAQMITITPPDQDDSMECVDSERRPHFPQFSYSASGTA
# Protocol: as §1
# PRP4 = PRP4 (Homo sapiens (Human), UniProt Q13523); settings: H929 live cell
# Protocol: as §1
# NDR1 = NDR1 (Homo sapiens (Human), UniProt Q15208); settings: H929 live cell
# Protocol: as §1
# PIK3CG = PIK3CG (Homo sapiens (Human), UniProt P48736); settings: H929 live cell
# Protocol: as §1
# PI4KA, PI4KAP2 = settings: H929 live cell
# Protocol: as §1
# PIK3C3 = PIK3C3 (Homo sapiens (Human), UniProt Q8NEB9); settings: H929 live cell
# Protocol: as §1
# CaMK2d = CaMK2d (Homo sapiens (Human), UniProt Q13557); settings: H929 live cell
# Protocol: as §1
# CDC2 = CDC2 (Homo sapiens (Human), UniProt P06493); settings: H929 live cell
# Chain of CDC2 (P06493 whole entry): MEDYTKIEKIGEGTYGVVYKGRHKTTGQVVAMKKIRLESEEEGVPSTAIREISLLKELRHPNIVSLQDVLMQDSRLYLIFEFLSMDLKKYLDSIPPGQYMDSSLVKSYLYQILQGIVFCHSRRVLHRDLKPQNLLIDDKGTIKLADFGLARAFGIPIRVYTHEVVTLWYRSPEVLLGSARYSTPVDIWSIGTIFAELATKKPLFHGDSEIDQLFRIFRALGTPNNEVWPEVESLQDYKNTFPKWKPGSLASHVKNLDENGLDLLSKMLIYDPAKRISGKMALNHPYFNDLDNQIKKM
# Protocol: as §1
# JNK1, JNK2, JNK3 = settings: H929 live cell
# Protocol: as §1
# CDK5 = CDK5 (Homo sapiens (Human), UniProt Q00535); settings: H929 live cell
# Chain of CDK5 (Q00535 whole entry): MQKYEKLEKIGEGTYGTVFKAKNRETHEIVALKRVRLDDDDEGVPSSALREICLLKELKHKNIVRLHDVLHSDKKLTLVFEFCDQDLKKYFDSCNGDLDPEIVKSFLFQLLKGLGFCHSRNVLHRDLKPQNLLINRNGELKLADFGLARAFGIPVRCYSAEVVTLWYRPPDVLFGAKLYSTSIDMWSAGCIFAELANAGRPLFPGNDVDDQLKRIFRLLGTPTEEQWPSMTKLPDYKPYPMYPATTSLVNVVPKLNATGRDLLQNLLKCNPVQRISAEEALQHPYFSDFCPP
# Protocol: as §1
# GCN2 domain2 = GCN2 domain2 (Homo sapiens (Human), UniProt Q9P2K8); settings: H929 live cell
# Chain of GCN2 domain2 (Q9P2K8 whole entry, the tested form may be a part): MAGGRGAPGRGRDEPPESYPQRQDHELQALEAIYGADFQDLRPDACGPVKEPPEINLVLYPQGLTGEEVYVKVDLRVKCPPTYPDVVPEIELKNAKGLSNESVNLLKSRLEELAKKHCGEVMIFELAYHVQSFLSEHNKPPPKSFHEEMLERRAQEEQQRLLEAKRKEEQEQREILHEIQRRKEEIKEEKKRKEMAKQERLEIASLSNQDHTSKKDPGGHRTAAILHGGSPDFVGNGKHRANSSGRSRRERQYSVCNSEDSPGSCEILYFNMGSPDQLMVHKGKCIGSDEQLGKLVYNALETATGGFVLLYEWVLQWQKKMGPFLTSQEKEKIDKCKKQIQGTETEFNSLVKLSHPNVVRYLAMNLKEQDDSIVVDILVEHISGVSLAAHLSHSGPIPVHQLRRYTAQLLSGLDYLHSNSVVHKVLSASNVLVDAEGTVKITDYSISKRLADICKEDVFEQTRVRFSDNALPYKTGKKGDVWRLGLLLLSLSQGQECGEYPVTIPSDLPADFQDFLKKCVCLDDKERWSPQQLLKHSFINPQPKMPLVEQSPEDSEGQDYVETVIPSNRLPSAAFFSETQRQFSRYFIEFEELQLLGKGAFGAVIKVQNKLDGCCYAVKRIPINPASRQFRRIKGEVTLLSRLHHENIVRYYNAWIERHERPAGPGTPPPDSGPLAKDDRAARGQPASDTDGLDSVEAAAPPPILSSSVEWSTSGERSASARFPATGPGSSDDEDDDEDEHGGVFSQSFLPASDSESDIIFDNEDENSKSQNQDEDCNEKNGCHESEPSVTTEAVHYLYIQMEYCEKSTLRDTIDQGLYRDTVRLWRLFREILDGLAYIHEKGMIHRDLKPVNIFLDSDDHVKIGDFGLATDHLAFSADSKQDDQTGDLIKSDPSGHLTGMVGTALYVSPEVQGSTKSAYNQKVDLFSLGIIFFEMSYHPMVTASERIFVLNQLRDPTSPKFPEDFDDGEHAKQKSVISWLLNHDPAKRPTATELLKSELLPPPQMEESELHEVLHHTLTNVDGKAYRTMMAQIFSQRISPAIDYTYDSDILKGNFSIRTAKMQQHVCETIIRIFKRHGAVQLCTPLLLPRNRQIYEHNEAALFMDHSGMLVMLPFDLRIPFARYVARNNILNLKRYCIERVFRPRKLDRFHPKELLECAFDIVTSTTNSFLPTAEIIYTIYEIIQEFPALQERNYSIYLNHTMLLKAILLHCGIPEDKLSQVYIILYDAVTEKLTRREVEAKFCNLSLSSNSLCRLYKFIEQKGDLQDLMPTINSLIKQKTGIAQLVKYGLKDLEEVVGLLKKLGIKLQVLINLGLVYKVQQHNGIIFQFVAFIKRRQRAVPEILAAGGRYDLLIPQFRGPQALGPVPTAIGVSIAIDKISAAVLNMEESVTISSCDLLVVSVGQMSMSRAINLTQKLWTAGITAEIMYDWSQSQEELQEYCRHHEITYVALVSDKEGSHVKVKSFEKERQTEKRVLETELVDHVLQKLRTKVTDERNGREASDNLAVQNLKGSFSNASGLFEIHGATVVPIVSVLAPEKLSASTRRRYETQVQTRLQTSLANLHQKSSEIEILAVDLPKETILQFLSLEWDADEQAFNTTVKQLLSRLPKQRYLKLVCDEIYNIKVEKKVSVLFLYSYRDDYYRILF
# Protocol: as §1
# MST3 = MST3 (Homo sapiens (Human), UniProt Q9Y6E0); settings: H929 live cell
# Protocol: as §1
# ACK = ACK (Homo sapiens (Human), UniProt Q07912); settings: H929 live cell
# Protocol: as §1
# NEK6, NEK7 = settings: H929 live cell
# Protocol: as §1
# DGKH = DGKH (Homo sapiens (Human), UniProt Q86XP1); settings: H929 live cell
# Protocol: as §1
# Erk2 = Erk2 (Homo sapiens (Human), UniProt P28482); settings: H929 live cell
# Protocol: as §1
# MAP2K5 = MAP2K5 (Homo sapiens (Human), UniProt Q13163); settings: H929 live cell
# Protocol: as §1
compound,measurement,setting,value
"Nc1ncc(-c2cccc3ncsc23)cc1-c1ccc2c(c1)CCNC2=O [Compound I-13, 6-(2-amino-5-(benzo[d]thiazol-7-yl)pyridin-3-yl)-3,4-dihydroisoquinolin-1(2H)-one]",inhibition at 10 µM,PEK; read-out: % inhibition (range),0%
same,inhibition at 10 µM,PEK; read-out: inhibition (10 μM),-40.8%
same,inhibition at 10 µM,MSK2 domain1; read-out: % inhibition (range),0%
same,inhibition at 10 µM,MSK2 domain1; read-out: inhibition (10 μM),-6.1%
same,inhibition at 10 µM,FRAP; read-out: % inhibition (range),0%
same,inhibition at 10 µM,FRAP; read-out: inhibition (10 μM),32.5%
same,inhibition at 10 µM,MARK4,39.8%
same,inhibition at 10 µM,CK1g2; read-out: % inhibition (range),> 90%
same,inhibition at 10 µM,CK1g2; read-out: inhibition (10 μM),> 90%
same,inhibition at 10 µM,MAP2K7; read-out: % inhibition (range),0%
same,inhibition at 10 µM,MAP2K7; read-out: inhibition (10 μM),15.1%
same,inhibition at 10 µM,STLK3; read-out: % inhibition (range),0%
same,inhibition at 10 µM,STLK3; read-out: inhibition (10 μM),1.1%
same,inhibition at 10 µM,eEF2K; read-out: % inhibition (range),0%
same,inhibition at 10 µM,eEF2K; read-out: inhibition (10 μM),-45.5%
same,inhibition at 10 µM,SRPK1; read-out: % inhibition (range),0%
same,inhibition at 10 µM,SRPK1; read-out: inhibition (10 μM),10.8%
same,inhibition at 10 µM,MST2; read-out: % inhibition (range),75 to 90%
same,inhibition at 10 µM,MST2; read-out: inhibition (10 μM),85.5%
same,% inhibition (range),"MST4, YSK1; 10 μM",0.0%
same,inhibition (10 μM),"MST4, YSK1",−17.0%
same,inhibition at 10 µM,RSK1 domain2; read-out: % inhibition (range),0%
same,inhibition at 10 µM,RSK1 domain2; read-out: inhibition (10 μM),-7.7%
same,% inhibition (range),"MST1, MST2; 10 μM",75-90%
same,inhibition (10 μM),"MST1, MST2",89.4%
same,inhibition at 10 µM,PFTAIRE1; read-out: % inhibition (range),35 to 50%
same,inhibition at 10 µM,PFTAIRE1; read-out: inhibition (10 μM),49.2%
same,inhibition at 10 µM,MAP2K1; read-out: % inhibition (range),0%
same,inhibition at 10 µM,MAP2K1; read-out: inhibition (10 μM),-27.4%
same,inhibition at 10 µM,GSK3B; read-out: % inhibition (range),75 to 90%
same,inhibition at 10 µM,GSK3B; read-out: inhibition (10 μM),88.4%
same,inhibition at 10 µM,AKT1; read-out: % inhibition (range),0%
same,inhibition at 10 µM,AKT1; read-out: inhibition (10 μM),26.4%
same,inhibition at 10 µM,PRP4; read-out: % inhibition (range),50 to 75%
same,inhibition at 10 µM,PRP4; read-out: inhibition (10 μM),73.4%
same,inhibition at 10 µM,NDR1; read-out: % inhibition (range),0%
same,inhibition at 10 µM,NDR1; read-out: inhibition (10 μM),13%
same,inhibition at 10 µM,PIK3CG; read-out: % inhibition (range),0%
same,inhibition at 10 µM,PIK3CG; read-out: inhibition (10 μM),12.4%
same,% inhibition (range),"PI4KA, PI4KAP2; 10 μM",0.0%
same,inhibition (10 μM),"PI4KA, PI4KAP2",−16.1%
same,inhibition at 10 µM,PIK3C3; read-out: % inhibition (range),0%
same,inhibition at 10 µM,PIK3C3; read-out: inhibition (10 μM),24.8%
same,inhibition at 10 µM,CaMK2d; read-out: % inhibition (range),0%
same,inhibition at 10 µM,CaMK2d; read-out: inhibition (10 μM),-4.3%
same,inhibition at 10 µM,CDC2; read-out: % inhibition (range),0%
same,inhibition at 10 µM,CDC2; read-out: inhibition (10 μM),-15%
same,% inhibition (range),"JNK1, JNK2, JNK3; 10 μM",0.0%
same,inhibition (10 μM),"JNK1, JNK2, JNK3",6.0%
same,inhibition at 10 µM,CDK5; read-out: % inhibition (range),0%
same,inhibition at 10 µM,CDK5; read-out: inhibition (10 μM),20%
same,inhibition at 10 µM,GCN2 domain2; read-out: % inhibition (range),0%
same,inhibition at 10 µM,GCN2 domain2; read-out: inhibition (10 μM),13.5%
same,inhibition at 10 µM,MST3; read-out: % inhibition (range),0%
same,inhibition at 10 µM,MST3; read-out: inhibition (10 μM),-1.8%
same,inhibition at 10 µM,ACK; read-out: % inhibition (range),0%
same,inhibition at 10 µM,ACK; read-out: inhibition (10 μM),23.3%
same,% inhibition (range),"NEK6, NEK7; 10 μM",0.0%
same,inhibition (10 μM),"NEK6, NEK7",−20.1%
same,inhibition at 10 µM,DGKH; read-out: % inhibition (range),0%
same,inhibition at 10 µM,DGKH; read-out: inhibition (10 μM),25.7%
same,inhibition at 10 µM,Erk2; read-out: % inhibition (range),50 to 75%
same,inhibition at 10 µM,Erk2; read-out: inhibition (10 μM),74.6%
same,inhibition at 10 µM,MAP2K5; read-out: % inhibition (range),0%
same,inhibition at 10 µM,MAP2K5; read-out: inhibition (10 μM),13.4%
